Assay results published in patent US10781224B2, “Bis(oxymethyl)phosphinic acid and biogenic metal salts thereof as regulators of plant growth and development” (priority 2016, dated 2020).

Legend:
[1] = system: corn (Krasnodar 385 MV variety); test: Corn seed treatment with BHMPA salts: germinating power; assay type: in vivo
Outline: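 Seeds (50 per Petri dish on two layers of filter paper) soaked 1 h in BHMPA or its Ca, Mg, Na, Co, Mn, Cu or Zn salts at 1·10^−6-1·10^−12%, with water controls. Germination energy read on day 4, germination on day 8 (wheat) or day 7 (rice, corn), as % means of four replicates. Germinating power taken as root and sprout length plus wet and dry mass per 100 seedlings.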

[2] = system: winter wheat (Vershin variety); test: Winter wheat seed treatment with BHMPA salts: germination energy and germination rate; assay type: in vivo
Outline: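 Corn, winter wheat and rice seeds (50 per dish, on filter paper) were soaked for 1 h in BHMPA or its metal salts at 1·10^−6-1·10^−12%, with water as control. Germination energy was read on day 4 and germination rate on day 8 for wheat and day 7 for rice and corn, following GOST 12038-84, as the mean of four replicates.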

[3] = corn seeds, solution concentration 1 · 10^−6%, sodium salt of BHMPA
[4] = corn seeds, solution concentration 1 · 10^−7%, sodium salt of BHMPA
[5] = corn seeds, solution concentration 1 · 10^−8%, sodium salt of BHMPA
[6] = corn seeds, solution concentration 1 · 10^−9%, sodium salt of BHMPA
[7] = corn seeds, solution concentration 1 · 10^−10%, sodium salt of BHMPA
[8] = corn seeds, solution concentration 1 · 10^−11%, sodium salt of BHMPA
[9] = corn seeds, solution concentration 1 · 10^−12%, sodium salt of BHMPA
[10] = winter wheat Vershin, 1·10^−6% solution
[11] = winter wheat Vershin, 1·10^−7% solution
[12] = winter wheat Vershin, 1·10^−8% solution
[13] = winter wheat Vershin, 1·10^−9% solution
[14] = winter wheat Vershin, 1·10^−10% solution
[15] = winter wheat Vershin, 1·10^−11% solution
[16] = winter wheat Vershin, 1·10^−12% solution
[17] = winter wheat, comparative study vs Melaphen, 1·10^−9% solution

With `O=P([O-])(CO)CO.[Na+]` [Na-salt, Sodium BHMPA Salt] the “optimum concentration for treating corn seeds before sowing” value ([1]; corn) was 1·10^−10%, the “Length, root” value [1, 3] was 4.5 cm and the “Length, root, + % to control” value [1, 3] was −4%. For the same compound, the “Length, sprout” value [1, 3] was 2.4 cm, the “Length, sprout, + % to control” value [1, 3] was −14% and the “Mass, dry, root” value [1, 3] was 0.99 g/100 plantlings. For the same compound, the “Mass, dry, root, + % to control” value [1, 3] was −19%, the “Mass, dry, sprout” value [1, 3] was 0.69 g/100 plantlings and the “Mass, dry, sprout, + % to control” value [1, 3] was −4%. For the same compound, the “Mass, wet, root” value [1, 3] was 5.95 g/100 plantlings, the “Mass, wet, root, + % to control” value [1, 3] was −12% and the “Mass, wet, sprout” value [1, 3] was 4.34 g/100 plantlings. The “Mass, wet, sprout, + % to control” value [1, 3] was −5%, the “Length, root” value [1, 4] was 4.9 cm and the “Length, root, + % to control” value [1, 4] was 4%. The “Length, sprout” value [1, 4] was 2.6 cm, the “Length, sprout, + % to control” value [1, 4] was −7% and the “Mass, dry, root” value [1, 4] was 1.03 g/100 plantlings. The “Mass, dry, root, + % to control” value [1, 4] was −15.5%, the “Mass, dry, sprout” value [1, 4] was 0.77 g/100 plantlings and the “Mass, dry, sprout, + % to control” value [1, 4] was 7%. For the same compound, the “Mass, wet, root” value [1, 4] was 6.72 g/100 plantlings, the “Mass, wet, root, + % to control” value [1, 4] was −1% and the “Mass, wet, sprout” value [1, 4] was 4.62 g/100 plantlings. The “Mass, wet, sprout, + % to control” value [1, 4] was 1%, the “Length, root” value [1, 5] was 5.0 cm and the “Length, root, + % to control” value [1, 5] was 6%. For the same compound, the “Length, sprout” value [1, 5] was 2.8 cm, the “Length, sprout, + % to control” value [1, 5] was 0% and the “Mass, dry, root” value [1, 5] was 1.18 g/100 plantlings. For the same compound, the “Mass, dry, root, + % to control” value [1, 5] was −3%, the “Mass, dry, sprout” value [1, 5] was 0.86 g/100 plantlings and the “Mass, dry, sprout, + % to control” value [1, 5] was 19%. The “Mass, wet, root” value [1, 5] was 6.93 g/100 plantlings, the “Mass, wet, root, + % to control” value [1, 5] was 2% and the “Mass, wet, sprout” value [1, 5] was 4.74 g/100 plantlings. The “Mass, wet, sprout, + % to control” value [1, 5] was 4%, the “Length, root” value [1, 6] was 5.2 cm and the “Length, root, + % to control” value [1, 6] was 11%. The “Length, sprout” value [1, 6] was 3.0 cm, the “Length, sprout, + % to control” value [1, 6] was 7% and the “Mass, dry, root” value [1, 6] was 1.25 g/100 plantlings. For the same compound, the “Mass, dry, root, + % to control” value [1, 6] was 2%, the “Mass, dry, sprout” value [1, 6] was 0.69 g/100 plantlings and the “Mass, dry, sprout, + % to control” value [1, 6] was 26%. For the same compound, the “Mass, wet, root” value [1, 6] was 7.08 g/100 plantlings, the “Mass, wet, root, + % to control” value [1, 6] was 4% and the “Mass, wet, sprout” value [1, 6] was 4.91 g/100 plantlings. The “Mass, wet, sprout, + % to control” value [1, 6] was 7%, the “Length, root” value [1, 7] was 5.5 cm and the “Length, root, + % to control” value [1, 7] was 17%. The “Length, sprout” value [1, 7] was 3.1 cm, the “Length, sprout, + % to control” value [1, 7] was 11% and the “Mass, dry, root” value [1, 7] was 1.30 g/100 plantlings. For the same compound, the “Mass, dry, root, + % to control” value [1, 7] was 6.5%, the “Mass, dry, sprout” value [1, 7] was 1.12 g/100 plantlings and the “Mass, wet, root” value [1, 7] was 7.19 g/100 plantlings. The “Mass, wet, sprout” value [1, 7] was 5.35 g/100 plantlings, the “Mass, wet, sprout, + % to control” value [1, 7] was 17% and the “Length, root” value [1, 8] was 5.3 cm. For the same compound, the “Length, root, + % to control” value [1, 8] was 13%, the “Length, sprout” value [1, 8] was 2.9 cm and the “Length, sprout, + % to control” value [1, 8] was 3.5%. The “Mass, dry, root” value [1, 8] was 1.26 g/100 plantlings, the “Mass, dry, root, + % to control” value [1, 8] was 3% and the “Mass, dry, sprout” value [1, 8] was 0.92 g/100 plantlings. For the same compound, the “Mass, dry, sprout, + % to control” value [1, 8] was 28%, the “Mass, wet, root” value [1, 8] was 6.88 g/100 plantlings and the “Mass, wet, root, + % to control” value [1, 8] was 1%. For the same compound, the “Mass, wet, sprout” value [1, 8] was 4.99 g/100 plantlings, the “Mass, wet, sprout, + % to control” value [1, 8] was 9% and the “Length, root” value [1, 9] was 4.6 cm. For the same compound, the “Length, root, + % to control” value [1, 9] was −2%, the “Length, sprout” value [1, 9] was 2.6 cm and the “Length, sprout, + % to control” value [1, 9] was −7%. For the same compound, the “Mass, dry, root” value [1, 9] was 0.95 g/100 plantlings, the “Mass, dry, root, + % to control” value [1, 9] was −22% and the “Mass, dry, sprout” value [1, 9] was 0.80 g/100 plantlings. The “Mass, dry, sprout, + % to control” value [1, 9] was 11%, the “Mass, wet, root” value [1, 9] was 6.12 g/100 plantlings and the “Mass, wet, root, + % to control” value [1, 9] was −10%. The “Mass, wet, sprout” value [1, 9] was 4.37 g/100 plantlings, the “Mass, wet, sprout, + % to control” value [1, 9] was −4% and the “effectiveness on germinating power” value ([1]; corn, 1·10^−6% and 1·10^−12% solutions) was “ineffective”. The “Length, root, + % to control” value ([1]; corn, 1·10^−10% solution) was 17%, the “Length, sprout, + % to control” value ([1]; corn, 1·10^−10% solution) was 11% and the “Mass, dry, root, + % to control” value ([1]; corn, 1·10^−10% solution) was 6.5%. For the same compound, the “Mass, dry, sprout, + % to control” value ([1]; corn, 1·10^−10% solution) was 55.5%, the “Mass, wet, root, + % to control” value ([1]; corn, 1·10^−10% solution) was 6% and the “Mass, wet, sprout, + % to control” value ([1]; corn, 1·10^−10% solution) was 17%. It also gave a Germination energy [2, 10] of 84.4%, a Germination rate [2, 10] of 86.0% and a Germination energy [2, 11] of 86.7%. The Germination rate [2, 11] was 89.0%, the Germination energy [2, 12] was 90.2% and the Germination rate [2, 12] was 94.0%. It also gave a Germination energy [2, 13] of 92.3%, a Germination rate [2, 13] of 95.3% and a Germination energy [2, 14] of 88.4%. The Germination rate [2, 14] was 92.0%, the Germination energy [2, 15] was 85.0% and the Germination rate [2, 15] was 88.0%. It also gave a Germination energy [2, 16] of 83.2%, a Germination rate [2, 16] of 86.3% and a Germination energy [2, 17] of 87.3%. It also gave a Germination rate [2, 17] of 93.7%.
